Two compounds from publication PMC11167047 (Cell Death Discovery, 2024) can be followed below.

Assay in all cases: kinome screen (33PanQinase)
Holding throughout (format): biochemical

Assay [1] concerns the target T1, PRKG1 (Homo sapiens, UniProt Q13976).
T1 construct: purchased Reaction Biology Europe GmbH (formerly ProQinase)
T1 sequence (Q13976 1-671): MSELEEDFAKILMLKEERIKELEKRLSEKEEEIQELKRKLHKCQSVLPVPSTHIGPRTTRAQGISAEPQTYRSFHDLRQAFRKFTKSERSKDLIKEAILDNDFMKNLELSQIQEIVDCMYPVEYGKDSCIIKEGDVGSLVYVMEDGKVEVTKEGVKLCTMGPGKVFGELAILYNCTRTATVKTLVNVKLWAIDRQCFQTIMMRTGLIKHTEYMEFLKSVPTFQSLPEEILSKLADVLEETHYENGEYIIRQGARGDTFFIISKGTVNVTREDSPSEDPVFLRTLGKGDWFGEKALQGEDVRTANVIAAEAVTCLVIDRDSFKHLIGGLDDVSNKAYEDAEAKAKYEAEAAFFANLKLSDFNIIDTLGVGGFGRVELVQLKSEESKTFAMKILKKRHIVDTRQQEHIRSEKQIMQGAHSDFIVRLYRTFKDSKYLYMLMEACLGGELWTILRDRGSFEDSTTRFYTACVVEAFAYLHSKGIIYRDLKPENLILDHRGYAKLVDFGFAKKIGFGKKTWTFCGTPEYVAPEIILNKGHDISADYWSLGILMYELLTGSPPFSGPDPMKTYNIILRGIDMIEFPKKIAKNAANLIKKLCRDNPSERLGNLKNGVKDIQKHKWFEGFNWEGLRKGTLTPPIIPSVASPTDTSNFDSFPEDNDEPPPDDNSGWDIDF
How it is done:
(§1) The Kinome Screening was performed by Reaction Biology Europe GmbH (http://reactionbiology.com; Freiburg i. Br., Germany).

Assay [2] concerns the target T2, PAK3 (Homo sapiens, UniProt O75914).
T2 construct: purchased Reaction Biology Europe GmbH (formerly ProQinase)
How it is done: as §1

Assay [3] concerns the target T3, SIK2 (Homo sapiens, UniProt Q9H0K1).
T3 construct: purchased Reaction Biology Europe GmbH (formerly ProQinase)
How it is done:
as §1

Assay [4] deals with T4, NEK9 (Homo sapiens, UniProt Q8TD19).
T4 construct: purchased Reaction Biology Europe GmbH (formerly ProQinase)
T4 sequence (Q8TD19 1-979): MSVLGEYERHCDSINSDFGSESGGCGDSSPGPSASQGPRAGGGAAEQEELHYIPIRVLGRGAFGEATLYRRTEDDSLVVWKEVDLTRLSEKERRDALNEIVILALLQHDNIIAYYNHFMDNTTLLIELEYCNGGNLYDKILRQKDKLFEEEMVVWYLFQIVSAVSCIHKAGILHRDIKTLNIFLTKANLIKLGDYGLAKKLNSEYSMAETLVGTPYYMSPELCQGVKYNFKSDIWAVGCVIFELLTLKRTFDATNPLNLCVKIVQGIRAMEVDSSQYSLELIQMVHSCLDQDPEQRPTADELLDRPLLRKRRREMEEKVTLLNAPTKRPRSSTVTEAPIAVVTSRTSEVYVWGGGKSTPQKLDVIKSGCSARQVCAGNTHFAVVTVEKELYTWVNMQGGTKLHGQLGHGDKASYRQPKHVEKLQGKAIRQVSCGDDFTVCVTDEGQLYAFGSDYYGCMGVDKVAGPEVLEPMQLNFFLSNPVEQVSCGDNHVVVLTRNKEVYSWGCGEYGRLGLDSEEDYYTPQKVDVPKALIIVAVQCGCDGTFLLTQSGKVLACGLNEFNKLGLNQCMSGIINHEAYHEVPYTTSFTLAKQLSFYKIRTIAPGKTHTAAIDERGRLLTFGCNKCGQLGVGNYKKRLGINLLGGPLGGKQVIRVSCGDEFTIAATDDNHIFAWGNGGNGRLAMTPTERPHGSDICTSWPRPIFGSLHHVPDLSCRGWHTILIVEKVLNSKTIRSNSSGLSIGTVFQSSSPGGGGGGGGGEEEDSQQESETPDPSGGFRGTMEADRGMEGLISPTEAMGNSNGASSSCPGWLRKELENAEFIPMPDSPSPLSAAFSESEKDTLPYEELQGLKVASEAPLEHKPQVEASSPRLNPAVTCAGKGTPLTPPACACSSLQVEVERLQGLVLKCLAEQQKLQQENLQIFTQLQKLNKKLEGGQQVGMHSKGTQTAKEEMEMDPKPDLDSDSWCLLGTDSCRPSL
How it is done: as §1

For assay [5], the target named is T5, AuroraA (Homo sapiens, UniProt O14965).
T5 construct: purchased Reaction Biology Europe GmbH (formerly ProQinase)
T5 sequence (O14965 1-403): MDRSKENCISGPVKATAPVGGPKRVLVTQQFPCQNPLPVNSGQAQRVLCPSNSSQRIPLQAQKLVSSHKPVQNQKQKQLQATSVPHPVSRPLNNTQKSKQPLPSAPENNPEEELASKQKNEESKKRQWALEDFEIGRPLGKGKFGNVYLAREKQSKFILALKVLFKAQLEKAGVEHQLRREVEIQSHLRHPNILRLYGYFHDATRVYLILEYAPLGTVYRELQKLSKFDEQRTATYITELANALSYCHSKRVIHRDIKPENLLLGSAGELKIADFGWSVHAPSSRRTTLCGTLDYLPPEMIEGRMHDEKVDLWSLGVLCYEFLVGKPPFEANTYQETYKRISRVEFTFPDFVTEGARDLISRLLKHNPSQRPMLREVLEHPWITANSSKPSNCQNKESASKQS
How it is done:
as §1

T2 sequence (O75914 whole entry): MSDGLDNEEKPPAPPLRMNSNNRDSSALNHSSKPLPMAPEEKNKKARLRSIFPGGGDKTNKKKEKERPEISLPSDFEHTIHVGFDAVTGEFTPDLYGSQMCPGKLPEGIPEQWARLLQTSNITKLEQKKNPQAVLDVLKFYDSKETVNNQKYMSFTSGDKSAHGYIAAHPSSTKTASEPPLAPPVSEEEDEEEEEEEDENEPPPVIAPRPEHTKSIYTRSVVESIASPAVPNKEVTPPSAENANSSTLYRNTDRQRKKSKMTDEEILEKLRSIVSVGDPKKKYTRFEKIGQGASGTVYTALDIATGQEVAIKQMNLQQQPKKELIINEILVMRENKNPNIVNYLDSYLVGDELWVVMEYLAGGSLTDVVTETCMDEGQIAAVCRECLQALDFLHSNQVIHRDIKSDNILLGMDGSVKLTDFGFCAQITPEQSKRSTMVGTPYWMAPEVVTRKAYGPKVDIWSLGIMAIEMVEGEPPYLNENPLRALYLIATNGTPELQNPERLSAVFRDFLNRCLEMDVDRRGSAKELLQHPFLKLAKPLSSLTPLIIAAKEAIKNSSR
T3 sequence (Q9H0K1 whole entry): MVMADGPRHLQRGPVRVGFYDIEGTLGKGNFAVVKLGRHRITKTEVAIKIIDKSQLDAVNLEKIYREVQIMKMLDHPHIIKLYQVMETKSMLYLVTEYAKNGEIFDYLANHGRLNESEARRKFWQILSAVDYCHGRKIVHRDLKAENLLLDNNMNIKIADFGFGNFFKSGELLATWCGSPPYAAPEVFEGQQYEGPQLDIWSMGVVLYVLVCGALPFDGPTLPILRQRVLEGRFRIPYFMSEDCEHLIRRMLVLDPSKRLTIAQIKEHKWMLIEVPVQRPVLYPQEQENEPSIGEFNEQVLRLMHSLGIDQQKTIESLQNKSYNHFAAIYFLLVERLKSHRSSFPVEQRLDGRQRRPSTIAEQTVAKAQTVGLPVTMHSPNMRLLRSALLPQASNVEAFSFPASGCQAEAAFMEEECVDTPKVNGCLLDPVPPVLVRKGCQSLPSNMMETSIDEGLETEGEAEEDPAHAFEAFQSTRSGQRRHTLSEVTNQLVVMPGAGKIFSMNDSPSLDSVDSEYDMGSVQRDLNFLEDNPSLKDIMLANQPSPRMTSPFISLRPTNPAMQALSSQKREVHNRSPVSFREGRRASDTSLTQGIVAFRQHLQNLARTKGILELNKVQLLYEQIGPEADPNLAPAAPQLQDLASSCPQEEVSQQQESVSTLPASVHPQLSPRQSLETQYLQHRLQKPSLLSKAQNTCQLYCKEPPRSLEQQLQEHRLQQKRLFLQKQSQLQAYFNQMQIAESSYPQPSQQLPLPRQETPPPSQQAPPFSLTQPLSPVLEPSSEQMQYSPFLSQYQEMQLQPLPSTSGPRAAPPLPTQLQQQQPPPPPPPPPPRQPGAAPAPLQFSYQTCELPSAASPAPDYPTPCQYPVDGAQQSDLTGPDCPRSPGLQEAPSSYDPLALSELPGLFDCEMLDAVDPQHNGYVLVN

Consider `c1ccc(CNc2cc(-c3c[nH]c4ncccc34)ccn2)cc1` [meriolin 36], for which the residual kinase activity in assay [1] (0.3 µM) is on record as 6 % of control; in assay [1] (3 µM) it was 1 % of control; in assay [2] (0.3 µM), 85 % of control; in assay [2] (3 µM), 40 % of control; in assay [3] (0.3 µM) it was 86 % of control; in assay [3] (3 µM), 27 % of control. Also, the residual kinase activity in assay [4] (0.3 µM) is reported as 88 % of control; in assay [4] (3 µM), 67 % of control; in assay [5] (0.3 µM), 81 % of control; in assay [5] (3 µM), 35 % of control.

In the case of `COc1ccnc2[nH]cc(-c3cc(N)nc(N)c3)c12` [meriolin 16], the residual kinase activity in assay [1] (0.03 µM) was 75 % of control; in assay [1] (0.3 µM) it was 30 % of control; in assay [2] (0.03 µM) it was 85 % of control; in assay [2] (0.3 µM), 84 % of control; in assay [3] (0.03 µM), 96 % of control; in assay [3] (0.3 µM) it was 102 % of control. In addition, the residual kinase activity is 89 % of control in assay [4] (0.03 µM), 87 % of control in assay [4] (0.3 µM), 109 % of control in assay [5] (0.03 µM) and 107 % of control in assay [5] (0.3 µM).
